Laboratory results as given in article PMC8129907 (Journal of Bone and Joint Infection, 2021).
Read-outs that look alike come from different tables or passages of the source. Marks after values point to notes of the source that are not given here.

Columns and labels:
[1] = pig, 500 mg intraosseous, no tourniquet, microdialysis, mean (SD), n = 8; for AUC 0-last: 12 h
Method: (§1) Eight female pigs, from the same supplier and raised under the same conditions, were included in the study (Danish Landrace Breed, age 5 months, weight 78–82 kg). The pigs were kept under general anesthesia with a continuous infusion of propofol (450–650 mg/h) and fentanyl (0.5–0.7 mg/h) throughout the entire study period. The arterial pH and body temperature were monitored and kept in the ranges of 7.37–7.52 and 36.4–40.0 ^∘ C, respectively. After the study, the pigs were euthanized using pentobarbital.
An intraosseous cannula (15 mm) was inserted into the medial tibial condyle approximately 10 mm distal to the epiphyseal line; see Fig. 1. Three tibial microdialysis probes were placed in drill holes, one in the adjacent cancellous bone parallel to and at a mean distance of 9 (range 7–10) mm from the intraosseous cannula tip (drill depth 35±1 mm), one in the cortical bone at the anterior–medial margin of the tibial diaphysis (drill depth 14±0.5 mm), and one within the intramedullary canal of the tibial diaphysis. All drill holes were made with a 2 mm drill, which was paused every few seconds to prevent overheating of the bone tissue. Subsequently, a probe was placed in the synovial fluid of the knee joint using a splittable introducer. Finally, a subcutaneous tissue probe was placed lateral to the knee joint. No tourniquet was applied. Correct positions of all the probes and the distance between the intraosseous cannula and the adjacent cancellous bone microdialysis catheter were verified by fluoroscopy.
Due to continuous perfusion of the microdialysis system, a complete equilibrium across the semipermeable membrane will never occur. The concentration in the dialysate will therefore only represent a fraction of the absolute tissue concentration, which is expressed as the relative recovery. Thus, relative recovery must be determined to assess the absolute tissue concentrations. In the present study, all microdialysis probes were individually calibrated in the beginning of the study using the retrodialysis by drug method (Scheller and Kolb, 1991).
In the present study we used CMA 107 precision pumps ( μ -Dialysis AB, Stockholm, Sweden) producing a flow rate of 1 µL/min and CMA 70 probes (membrane lengths 10 and 20 mm, molecular cutoff 20 kDa).
(§2) Afterwards, all probes were individually calibrated by the retrodialysis method by collecting a 60 min sample. […] The first three dialysates were collected at times 40, 80, and 120 min. Thereafter, dialysates were collected at 60 min intervals from times 120 to 720 min, giving a total of 13 samples from each compartment over 12 h. Blood samples were drawn from a central venous catheter at the midpoint of the microdialysis sample intervals. The dialysates were instantly stored at -80 ^∘ C until analysis. Blood samples were stored at 5 ^∘ C for a maximum of 4 h before being centrifuged at 3000 rpm for 10 min. The obtained plasma aliquots were then stored at -80 ^∘ C until analysis.
(§3) Intra-run (total) imprecisions for the assay were ±1.2 µg/mL (2 standard deviations – SD) at 6.6 and ±3.7 µg/mL (2 SD) at 29.1 µg/mL .
Standard pharmacokinetic parameters were determined separately for each compartment in each pig by non-compartmental analysis using Stata (v. 14.1, StataCorp LLC, College Station, TX, USA). The area under the concentration–time curve (AUC 0-last ) was calculated using the trapezoidal rule. The maxima of all the recorded concentrations were defined as peak drug concentration ( Cmax ) and enabled a calculation of the time to Cmax ( Tmax ).

[2] = Plasma vancomycin concentrations after tibial intraosseous administration; settings: pig, 500 mg intraosseous, no tourniquet, mean (SD), n = 8
Method: as §1, §2, §3
Standard pharmacokinetic parameters were determined separately for each compartment in each pig by non-compartmental analysis using Stata (v. 14.1, StataCorp LLC, College Station, TX, USA). The area under the concentration–time curve (AUC 0-last ) was calculated using the trapezoidal rule. The maxima of all the recorded concentrations were defined as peak drug concentration ( Cmax ) and enabled a calculation of the time to Cmax ( Tmax ). Half-life ( T1/2 ) was determined for all compartments except for tibial cortical bone and calculated as ln(2)/ λeq , where λeq is the terminal elimination rate constant estimated by linear regression of the log concentration on time. For AUC 0-last and Cmax , a mixed model for repeated measurements was applied, taking the variance between pigs into account. The model assumptions were tested by visual diagnosis of residuals, fitted values, and estimates of random effects. A correction for degrees of freedom due to small sample size was handled using the Kenward–Roger approximation method. The t test was used to determine relevant pairwise comparisons. A p value <0.05 was considered to be significant. A Spearman test was used to test the correlation between the distance of the intraosseous cannula and the adjacent cancellous bone drill hole with the peak drug concentration. Statistical analyses were also performed using Stata. […] Values below the quantification limit were set to zero.

[3] = system: Commonly encountered bacteria in orthopaedic infections; set-up: method as in Rybak, 2006; EUCAST, 2019; settings: range for commonly encountered bacteria in orthopaedic infections; ref Rybak, 2006; EUCAST, 2019; cited from earlier work
[4] = proximal tourniquet applied before intraosseous administration, ref Young et al., 2014, Chin et al., 2018, Rubio-Martinez et al., 2006, cited from earlier work
[5] = intramedullary canal in the tibia
[6] = synovial fluid of the knee joint

CN[C@H](CC(C)C)C(=O)N[C@H]1C(=O)N[C@@H](CC(N)=O)C(=O)N[C@H]2C(=O)N[C@H]3C(=O)N[C@H](C(=O)N[C@H](C(=O)O)c4cc(O)cc(O)c4-c4cc3ccc4O)[C@H](O)c3ccc(c(Cl)c3)Oc3cc2cc(c3O[C@@H]2O[C@H](CO)[C@@H](O)[C@H](O)[C@H]2O[C@H]2C[C@](C)(N)[C@H](O)[C@H](C)O2)Oc2ccc(cc2Cl)[C@H]1O [vancomycin]
AUC 0-last [1, 5]: 1980 (908) ^a min µg/mL
T1/2 [1, 5]: 339 (332) min
Tmax [1, 5]: 65 (26) min
AUC 0-last ([1]; subcutaneous tissue): 1881 (691) ^a min µg/mL
T1/2 ([1]; subcutaneous tissue): 361 (269) min
Tmax ([1]; subcutaneous tissue): 70 (19) min
AUC 0-last [1, 6]: 1565 (758) ^a min µg/mL
T1/2 [1, 6]: 217 (140) min
Tmax [1, 6]: 45 (21) min
T1/2 ([1]; tibial cancellous bone): 279 (188) min
Tmax ([1]; tibial cancellous bone): 111 (94) min
vancomycin concentration after 11.5 h (690 min), end concentration ([1]; tibial cancellous bone): 278 (469) µg/mL
AUC 0-last ([1]; tibial cortical bone): 326 (331) min µg/mL
Tmax ([1]; tibial cortical bone): 405 (278) min
AUC 0-last ([2]; plasma (free concentration, enzyme immunoassay), 12 h): 3,673 (611) min µg/mL
Cmax (peak drug concentration) ([2]; plasma (free concentration, enzyme immunoassay)): 19 (2) µg/mL
T1/2 ([2]; plasma): 254 (128) min
Tmax ([2]; plasma): 20 (19) min
planktonic MIC [3]: 0.5 to 4 µg/mL
systemic vancomycin plasma levels after tourniquet deflation ([4]; range): 1.8 to 6.0 µg/mL
increase of plasma levels after tourniquet deflation [4]: 4–10 fold
systemic vancomycin plasma levels during tourniquet inflation [4]: 0.0 to 2.7 µg/mL
